What was measured:
GSTPH(GRP) = target: T1, GSTPH(GRP) (Mus musculus, UniProt O08967); test: Competition of [32P]PI(3,4,5)P3 binding to GST-PH by inositol phosphate head groups; design: species or system murine; details: for inhibition of [^32 P]PI(3,4,5)P3 binding to GST-PH(GRP): 100 μM competitor; for binding of inositol phosphate to GRP polypeptides: statement in the description
T1 construct: residues 239 to 399 (PH domain); made in house; host or cells: bacteria
T1 sequence (O08967 239-399): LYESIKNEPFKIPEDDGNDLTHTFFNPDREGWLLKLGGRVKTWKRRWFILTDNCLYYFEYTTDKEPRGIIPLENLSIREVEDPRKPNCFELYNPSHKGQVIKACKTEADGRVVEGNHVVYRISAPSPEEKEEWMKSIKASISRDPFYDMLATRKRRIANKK
Description: (§1) To generate the GST fusion proteins, PCR reactions using the primers: […] (SEQ ID NO:9) and […] (SEQ ID NO:10) for the GST-N construct, […] (SEQ ID NO:11) and […] (SEQ ID NO:12) for the GST-Sec7 construct, […] (SEQ ID NO:13) and […] (SEQ ID NO:14) for the GSTPH construct, and […] (SEQ ID NO:15) and […] (SEQ ID NO:16) for the GSTGRP constructs. The sequences of the PCR products were verified, and cloned into pGEX-5X-3 in the EcoRI and Xba 1 sites. The bacteria were lysed and the fusion proteins were bound to gluthathione agarose according to standard procedures. Elution was effected by incubation of the beads with one volume 20 mM Hepes, 100 mM NaCl, 1 mM dithiotreitol (H buffer) supplemented with 10 mM gluthatione and 1% sodium cholate, and the eluate was dialyzed extensively against H buffer. For binding assays, protein was bound to nitrocellulose using a BIO-RAD BIO-DOT™ apparatus, using 150 pmol per well for binding assays and 7.5 pmol for competition assays. The nitrocellulose was washed in assay buffer, and 3 mm circles of the filters containing the protein were cut out and incubated in […] assay buffer with the relevant lipids and competitors for 2 h under constant agitation. The filters were washed four times with 1 mL assay buffer and counted in a scintillation counter.
The specificity of the GRP PH domain for binding [^32 P]PI(3,4,5,)P3 was also examined with respect to competition by the inositol phosphate head groups of the phosphoinositides. […] More specifically, 25,000 cpm of [^32 P]PI(3,4,5)P3 was incubated with varying concentrations of inositol 1 ,3,4,5P4 and bound radioactivity determined. The amount of radioactivity bound was calculated as percent of that bound in the absence of competitor. The values are means of quadruplicate measurements, and the error bars are standard deviations. The lack of inhibition by the latter two phosphoinositides is particularly striking since they carry the same charge as the inhibitor […] The concentration of inositol 1,3,4,5-P4 that inhibited binding of [^32 p]PI(3,4,5,)P3 half maximally was about 3-6 μM (FIG. 5A). Taken together, the data in FIGS. 4 and 5 indicate extraordinary specificity of the GRP PH domain for PI(3,4,5)P3. […] The binding to GST fusion proteins containing amino acids 462-569 of murine Sos or amino acid 13-115 of murine IRS-1 was assayed using 150 pmoles of protein bound to the filters. Competition of binding to 7.5 pmoles of GST-PH was measured in the presence of 100 μM of the competitors. The values were calculated as in (A), and are means of quadruplicate measurements and the error bars represent standard deviations.

GRP = target: T2, GRP (Mus musculus, UniProt O08967); test: Inhibition by inositol phosphates of PtdIns(3,4,5)P3-stimulated GRP-mediated ARF1 exchange; type: biochemical; details: 100 μM inositol phosphate, 0.05% cholate and 0.05% CHAPS
T2 construct: GST (N, cleaved yes); made in house; host or cells: GRP from pGEX-4T; ARF1 from baculovirus-infected Sf-9 cells
T2 sequence (O08967 1-399): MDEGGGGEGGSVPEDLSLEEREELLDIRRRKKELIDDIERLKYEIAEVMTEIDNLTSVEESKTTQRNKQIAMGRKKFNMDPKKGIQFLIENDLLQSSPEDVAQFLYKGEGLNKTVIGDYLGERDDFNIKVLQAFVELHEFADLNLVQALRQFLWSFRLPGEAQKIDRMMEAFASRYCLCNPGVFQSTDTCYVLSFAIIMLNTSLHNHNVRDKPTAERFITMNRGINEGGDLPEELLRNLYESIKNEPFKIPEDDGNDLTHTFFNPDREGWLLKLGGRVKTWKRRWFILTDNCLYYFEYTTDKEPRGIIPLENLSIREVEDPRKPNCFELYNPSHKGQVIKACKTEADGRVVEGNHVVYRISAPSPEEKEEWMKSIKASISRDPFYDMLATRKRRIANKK

ARF1 = ARF1 guanine nucleotide exchange ([35S]GTPγS binding); type: biochemical; details: [^35 S]GTPγS binding to immunoprecipitated ARF1
[1] = Binding of [32P]PI(3,4,5)P3 by GST fusion proteins spotted on nitrocellulose; details: 150 pmol protein on nitrocellulose; relative to GST
Procedure: The 3'-phosphatidylinositol probes labeled at the 3' position were generated using GST-p110 PI3-kinase purified from recombinant bacculovirus infected Sf 9 cells, using either purified phosphatidylinositol phosphates or crude brain lipid. Briefly, 20 mg phospholipid in chloroform was dried under N2 and resuspended in […] of buffer containing Tris-HCl pH 7.4, EDTA 1 mM and incubated in […] phopsphorylation media containing 20 mM Tris-HCl pH 7.4, 100 mM NaCl, 10 mM MgCl2, 0.5 mM EGTA. 0.2 mM adenosine, GST-p110 and 5-10 mCi [g-^32 P]ATP (5 Ci/umol). The reaction was carried out for 2 h at room temperature, quenched by addition of 0.2 ml of 1M HCl, followed by 0.5 ml of chloroform:methanol (1:1). The organic phase containing phospholipids was washed 4 times with 0.4 ml of methanol:HCl (1: 1) and stored at -70° C. until use. Just before use, the lipid was dried under a stream of nitrogen with phosphatidyl serine corresponding to a final concentration of 20 mg/ml. The identities of the PI3-P, PI3,4-P2 and PI3,4,5-P3 were confirmed by TLC and HPLC analysis.
as §1
In order to determine whether PI(3,4,5)P3 binding could be localized to specific sequences within the GRP structure, GST fusion proteins containing either residues 239 to 399 (PH domain), residues 52 to 260 (Sec7 domain), or residues 5 to 71, full length GRP residues 5-399 were expressed in bacteria and purified on glutathione-conjugated beads. […] 150 pmol of the proteins were spotted on nitrocellulose filters, incubated with [^32 P]PI(3,4,5)P3 and the amount of bound lipid was determined as described. The values are the means of the quadruplicate determinations, and the error bars are the standard deviations. […] Nitrocellulose filters with GST-PH were incubated with 25,000 cpm of each of the phospholipids and the amount of bound lipid determined as described above. The values are the means of quadruplicate determinations and the error bars are the standard deviations. […] Although previous work has shown that PH domain from PLCδ (Lemmon et al. (1995) supra) and various other proteins bind 4,5-polyphosphoinositide, none have been reported to preferentially associate with a 3-polyphosphoinositide. […]

## O=P(O)(O)O[C@H]1[C@H](OP(=O)(O)O)[C@@H](OP(=O)(O)O)[C@H](O)[C@@H](O)[C@H]1OP(=O)(O)O (relative stereo) [Ins(1,2,5,6)P4, inositol 1,2,5,6-P4]
GSTPH(GRP)
  inhibition of [^32 P]PI(3,4,5)P3 binding to GST-PH(GRP): little or no effect
  binding of inositol phosphate to GRP polypeptides: not
GRP
  inhibition of PtdIns(3,4,5)P3-stimulated GRP-mediated ARF1 guanine nucleotide exchange: failed to inhibit

## O=P(O)(O)O[C@H]1[C@H](O)[C@@H](O)[C@H](OP(=O)(O)O)[C@@H](OP(=O)(O)O)[C@H]1O [Ins(1,3,4)P3]
GRP
  inhibition of PtdIns(3,4,5)P3-stimulated GRP-mediated ARF1 guanine nucleotide exchange: failed to inhibit

## O=P(O)(O)O[C@H]1[C@H](O)[C@@H](OP(=O)(O)O)[C@H](OP(=O)(O)O)[C@@H](OP(=O)(O)O)[C@H]1O [Ins(1,3,4,5)P4, inositol 1,3,4,5-P4]
GSTPH(GRP)
  inhibition of [^32 P]PI(3,4,5)P3 binding to GST-PH(GRP): markedly inhibited
  binding of inositol phosphate to GRP polypeptides: bind
GSTPH(GRP); 25,000 cpm [^32 P]PI(3,4,5)P3, GST-PH, read-out: concentration that inhibited binding of [^32 p]PI(3,4,5)P3 half maximally
  IC50: 3 to 6 µM
GRP
  inhibition of PtdIns(3,4,5)P3-stimulated GRP-mediated ARF1 guanine nucleotide exchange: virtually ablated
GRP; listed as Ins(1,3,4,5) tetrakisphosphate
  inhibition of PtdIns(3,4,5)P3-stimulated GRP-mediated ARF1 guanine nucleotide exchange: selectively blocked

## O=P(O)(O)O[C@@H]1[C@@H](O)[C@H](OP(=O)(O)O)[C@@H](OP(=O)(O)O)[C@@H](O)[C@H]1OP(=O)(O)O [Ins(1,3,4,6)P4, inositol 1,3,4,6-P4]
GSTPH(GRP)
  inhibition of [^32 P]PI(3,4,5)P3 binding to GST-PH(GRP): little or no effect
  binding of inositol phosphate to GRP polypeptides: not
GRP
  inhibition of PtdIns(3,4,5)P3-stimulated GRP-mediated ARF1 guanine nucleotide exchange: failed to inhibit

B1: GRP PH domain: GST fusion protein containing residues 239 to 399 (PH domain) (protein)
chain: T1 sequence (O08967 239-399)
modifications: GST fusion partner
ARF1
  ARF1 guanine nucleotide exchange: no effect
[1]
  binding of [^32 P]PI(3,4,5)P3 by GST fusion protein: extensive binding

B2: GRP Sec7 domain: GST fusion protein containing residues 52 to 260 (Sec7 domain) (protein, UniProt O08967 52-260, looked up, fragment)
chain: IDNLTSVEESKTTQRNKQIAMGRKKFNMDPKKGIQFLIENDLLQSSPEDVAQFLYKGEGLNKTVIGDYLGERDDFNIKVLQAFVELHEFADLNLVQALRQFLWSFRLPGEAQKIDRMMEAFASRYCLCNPGVFQSTDTCYVLSFAIIMLNTSLHNHNVRDKPTAERFITMNRGINEGGDLPEELLRNLYESIKNEPFKIPEDDGNDLTH
modifications: Sec7 domain GST fusion
ARF1
  ARF1 guanine nucleotide exchange: high activity
ARF1; listed as SEC7 homology domain
  ARF1 guanine nucleotide exchange: as effective as the fill length GRP
ARF1; listed as Sec 7 domains of GRP
  ARF1 guanine nucleotide exchange: sufficient for catalysis
[1]
  binding of [^32 P]PI(3,4,5)P3 by GST fusion protein: No significant binding

B3: N-terminus of GRP: GST fusion protein containing residues 5 to 71 (protein, UniProt O08967 5-71, looked up, fragment)
chain: GGGEGGSVPEDLSLEEREELLDIRRRKKELIDDIERLKYEIAEVMTEIDNLTSVEESKTTQRNKQIA
modifications: GST fusion
ARF1
  ARF1 guanine nucleotide exchange: no effect
[1]
  binding of [^32 P]PI(3,4,5)P3 by GST fusion protein: No significant binding

B4: IRS-1PH domain: GST fusion protein containing amino acid 13-115 of murine IRS-1 (protein, UniProt P35569 13-115, looked up, fragment)
chain: VRKVGYLRKPKSMHKRFFVLRAASEAGGPARLEYYENEKKWRHKSSAPKRSIPLESCFNINKRADSKNKHLVALYTRDEHFAIAADSEAEQDSWYQALLQLHN
modifications: PH domain GST fusion
[1]
  binding of [^32 P]PI(3,4,5)P3 by GST fusion protein: negligible
